Test results published in ChEMBL document CHEMBL5512633, “Hit-to-lead optimization of 2-aminoquinazolines as anti-microbial agents against Leishmania donovani” (Eur J Med Chem, 2024).

Tests used:
Leishmania donovani [1] = test: Antileishmanial activity against Leishmania donovani MHOM/IN/1983/AG83 axenic amastigotes assessed as inhibition of growth at 20 uM incubated for 48 hrs by flow cytometric analysis relative to control; type: functional
[2] = Cytotoxicity against human THP-1 cells incubated for 72 hrs by DAPI staining based analysis; type: toxicity, cell-based
[3] = Metabolic stability in human liver microsomes assessed as hepatic blood flow preincubated for 10 mins and measured after 60 mins by LC-MS/MS analysis; type: ADME, Microsome; details: read-out: QH
[4] = Stability in mouse plasma assessed as compound remaining measured after 2 hrs by LC-MS/MS analysis; type: ADME, cell-free; details: read-out: Stability
[5] = Selectivity index, ratio of CC50 for cytotoxicity against human HepG2 cells to IC50 for antileishmanial activity against Leishmania donovani MHOM/IN/1983/AG83 axenic amastigotes; type: toxicity, cell-based; details: read-out: Ratio CC50/IC50
[6] = Cytotoxicity against human HepG2 cells assessed as inhibition of cell growth at 80 uM incubated for 48 hrs by PI staining based flow cytometric analysis relative to control; type: toxicity
[7] = Lipophilicity, logD of compound in 1-octanol and phosphate buffer at pH 7.4 by HPLC-UV analysis; type: physicochemical; details: 1-octanol/phosphate buffer
[8] = Metabolic stability in human liver microsomes assessed as half-life preincubated for 10 mins and measured after 60 mins by LC-MS/MS analysis; type: ADME, Microsome
[9] = Stability in human plasma assessed as compound remaining measured after 2 hrs by LC-MS/MS analysis; type: ADME, cell-free; details: read-out: Stability
[10] = Cytotoxicity against human HepG2 cells incubated for 48 hrs by PI staining based flow cytometric analysis; type: toxicity, cell-based
[11] = Metabolic stability in mouse liver microsomes assessed as hepatic blood flow preincubated for 10 mins and measured after 60 mins by LC-MS/MS analysis; type: ADME, Microsome; details: read-out: QH
Leishmania donovani [12] = test: Antileishmanial activity against Leishmania donovani MHOM/IN/1983/AG83 axenic amastigotes assessed as inhibition of growth incubated for 48 hrs by flow cytometric analysis; type: functional, organism-based; details: MHOM/IN/1983/AG83, 48 h
[13] = Metabolic stability in mouse liver microsomes assessed as half-life preincubated for 10 mins and measured after 60 mins by LC-MS/MS analysis; type: ADME, Microsome

With `COc1cc2c(N3CCCCC3)nc(Nc3ccc(C(F)(F)F)cc3)nc2cc1OC1CCCC1` the inhibition at 20 µM (Leishmania donovani [1]) was ~35.3% and the CC50 at 72 h [2] was > 50 µM.
With `COc1cc2c(N3CCCCC3)nc(NCc3cccc(Cl)c3)nc2cc1OC1CCCC1` the inhibition at 20 µM (Leishmania donovani [1]) was ~12% and the CC50 at 72 h [2] was 43.8 µM.
In the case of `COc1cc2c(N3CCCCC3)nc(NC(=O)c3ccc(F)cc3)nc2cc1OC1CCCC1`, the hepatic extraction ratio at 1 h [3] is reported as 0.575, the remaining at 2 h [4] is reported as 44.3% and the selectivity ratio [5] is reported as > 15. The inhibition at 48 h, 80 µM [6] was 10.8%, the logD [7] was 4.64 and the half-life [8] was 23.8 min. The remaining at 2 h [9] was 61%, the CC50 at 72 h [2] was 89.5 µM and the CC50 at 48 h [10] was > 80 µM. It also gave a hepatic extraction ratio at 1 h [11] of 0.494, an IC50 (Leishmania donovani [12]) of 5.43 µM and a half-life [13] of 19.4 min.
In the case of `COc1cc2c(N3CCCCC3)nc(NCc3cccc(F)c3)nc2cc1OC1CCCC1`, the inhibition at 20 µM (Leishmania donovani [1]) is reported as ~40.8% and the CC50 at 72 h [2] is reported as > 3 µM.
